Measurements: patent US11345912B2, “Directed evolution of multivalent glycopeptides that tightly bind to target proteins” (Brandeis University, priority 2013, dated 2022)

System: 2G12
Test: Binding curve and KD determination of 2G12-glycopeptide interaction (radiolabeled glycopeptide, protein G magnetic bead capture, scintillation counting)
Settings: Table 4, error = standard error of fit
Method in brief: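 Radiolabeled glycopeptide (<4 pmol) from PURE-system translation with click glycosylation was incubated with 100 nM 2G12 at room temperature. Complexes were captured on protein G beads and eluted at 70° C. Bound and unbound fractions were counted by scintillation, run at least in triplicate, and KD derived from binding curves.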

## CC[C@H](C)[C@H](NC(=O)[C@@H](NC(=O)[C@@H](NC(=O)[C@H](Cc1c[nH]cn1)NC(=O)[C@H](CC(N)=O)NC(=O)[C@H](CC(=O)O)NC(=O)[C@H](CCc1cn(C2CCC(OC3O[C@H](CO[C@H]4O[C@H](CO[C@H]5O[C@H](CO)[C@@H](O)[C@H](O)[C@@H]5O[C@H]5O[C@H](CO)[C@@H](O)[C@H](O)[C@@H]5O)[C@@H](O)[C@H](O[C@H]5O[C@H](CO)[C@@H](O)[C@H](O)[C@@H]5O[C@H]5O[C@H](CO)[C@@H](O)[C@H](O)[C@@H]5O)[C@@H]4O)[C@@H](O)[C@H](O[C@H]4O[C@H](CO)[C@@H](O)[C@H](O)[C@@H]4O[C@H]4O[C@H](CO)[C@@H](O)[C@H](O)[C@@H]4O[C@H]4O[C@H](CO)[C@@H](O)[C@H](O)[C@@H]4O)[C@@H]3O)CC2)nn1)NC(=O)[C@@H](NC(=O)[C@H](CCCCN)NC(=O)[C@H](CCC(=O)O)NC(=O)[C@H](CCCNC(=N)N)NC(=O)[C@H](CCCCN)NC(=O)[C@H](CS)NC(=O)[C@H](CC(N)=O)NC(=O)[C@@H](NC(=O)[C@H](CCCCN)NC(=O)[C@@H](NC(=O)[C@H](C)NC(=O)[C@H](CCc1cn(C2CCC(OC3O[C@H](CO[C@H]4O[C@H](CO[C@H]5O[C@H](CO)[C@@H](O)[C@H](O)[C@@H]5O[C@H]5O[C@H](CO)[C@@H](O)[C@H](O)[C@@H]5O)[C@@H](O)[C@H](O[C@H]5O[C@H](CO)[C@@H](O)[C@H](O)[C@@H]5O[C@H]5O[C@H](CO)[C@@H](O)[C@H](O)[C@@H]5O)[C@@H]4O)[C@@H](O)[C@H](O[C@H]4O[C@H](CO)[C@@H](O)[C@H](O)[C@@H]4O[C@H]4O[C@H](CO)[C@@H](O)[C@H](O)[C@@H]4O[C@H]4O[C@H](CO)[C@@H](O)[C@H](O)[C@@H]4O)[C@@H]3O)CC2)nn1)NC=O)[C@@H](C)O)[C@@H](C)O)[C@@H](C)O)C(C)C)[C@@H](C)O)C(=O)N[C@@H](CCc1cn(C2CCC(OC3O[C@H](CO[C@H]4O[C@H](CO[C@H]5O[C@H](CO)[C@@H](O)[C@H](O)[C@@H]5O[C@H]5O[C@H](CO)[C@@H](O)[C@H](O)[C@@H]5O)[C@@H](O)[C@H](O[C@H]5O[C@H](CO)[C@@H](O)[C@H](O)[C@@H]5O[C@H]5O[C@H](CO)[C@@H](O)[C@H](O)[C@@H]5O)[C@@H]4O)[C@@H](O)[C@H](O[C@H]4O[C@H](CO)[C@@H](O)[C@H](O)[C@@H]4O[C@H]4O[C@H](CO)[C@@H](O)[C@H](O)[C@@H]4O[C@H]4O[C@H](CO)[C@@H](O)[C@H](O)[C@@H]4O)[C@@H]3O)CC2)nn1)C(=O)N[C@@H](CCCNC(=N)N)C(=O)N[C@@H](CO)C(=O)N[C@H](C(=O)N1CCC[C@H]1C(=O)N[C@@H](Cc1c[nH]c2ccccc12)C(=O)N[C@@H](Cc1ccc(O)cc1)C(=O)N[C@H](C(=O)N[C@@H](Cc1ccc(O)cc1)C(=O)N[C@@H](CCCNC(=N)N)C(=O)N[C@@H](Cc1c[nH]c2ccccc12)C(=O)N[C@@H](CC(C)C)C(=O)N1CCC[C@H]1C(=O)N[C@@H](CC(N)=O)C(=O)NCC(=O)N[C@@H](CO)C(=O)NCC(=O)N[C@@H](CO)C(=O)N[C@@H](CC(C)C)C(=O)NCC(=O)N[C@@H](Cc1c[nH]cn1)C(=O)N[C@@H](Cc1c[nH]cn1)C(=O)N[C@@H](Cc1c[nH]cn1)C(=O)N[C@@H](Cc1c[nH]cn1)C(=O)N[C@@H](Cc1c[nH]cn1)C(=O)N[C@@H](Cc1c[nH]cn1)C(=O)N[C@@H](CCCNC(=N)N)C(=O)N[C@@H](CC(=O)O)C(=O)N[C@@H](Cc1ccc(O)cc1)C(=O)N[C@@H](CCCCN)C(=O)N[C@@H](CC(=O)O)C(=O)N[C@@H](CC(=O)O)C(=O)N[C@@H](CC(=O)O)C(=O)N[C@@H](CC(=O)O)C(=O)N[C@@H](CCCCN)C(=O)O)[C@@H](C)O)[C@@H](C)CC (some centres unmarked) [Clone 10V1, XATKTNCKREKTXDNHVTIXRSIPWYTYRWLPN]
Maximal fraction bound from curve fit
  Fmax [%]: 97 ± 2.1%
Ribosomally translated radiolabeled glycopeptide with His6/FLAG tag, room temperature, fit Fbound=(Fmax[2G12])/(KD+[2G12])
  Kd: 1.9 ± 0.17 nM
